Assay results as given in ChEMBL document CHEMBL1201862, “PubChem BioAssay data set” (2004).
Active and inactive are the calls of the source.

How the values were obtained:
[1] = target: T1, Sphingosine 1-phosphate receptor 4 (Homo sapiens, UniProt O95977); experiment: Late-stage fluorescence dose response cell-based assay to identify agonists of the Sphingosine 1-Phosphate Receptor 4 (S1P4): purchased compounds EC50. [Related pubchem assays (depositor defined):AID1509, AID1523, AID1563, AID1686, AID1701, AID1801]; type: functional
T1 sequence (O95977 whole entry): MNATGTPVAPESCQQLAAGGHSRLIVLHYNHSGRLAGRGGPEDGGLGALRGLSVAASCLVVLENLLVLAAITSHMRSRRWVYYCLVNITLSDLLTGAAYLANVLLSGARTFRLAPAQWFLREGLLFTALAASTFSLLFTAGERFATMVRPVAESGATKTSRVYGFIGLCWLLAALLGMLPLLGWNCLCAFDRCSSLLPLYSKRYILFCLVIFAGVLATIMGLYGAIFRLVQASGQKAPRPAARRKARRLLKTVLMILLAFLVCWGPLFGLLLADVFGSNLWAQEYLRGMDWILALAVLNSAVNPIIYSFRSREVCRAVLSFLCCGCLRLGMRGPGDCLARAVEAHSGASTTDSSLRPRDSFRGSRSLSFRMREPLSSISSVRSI

[2] = target: Signal transducer and activator of transcription 1-alpha/beta (Homo sapiens, UniProt P42224); experiment: STAT3 inhibitors, late-stage profile, late-stage follow-up, cell-based, STAT1 panel, qPCR, cytotoxicity, panel member STAT1 Inhibition (AID 2078)
[3] = target: Signal transducer and activator of transcription 3 (Homo sapiens, UniProt P40763); experiment: STAT3 inhibitors, late-stage profile, late-stage follow-up, cell-based, STAT1 panel, qPCR, cytotoxicity, panel member STAT3 Inhibition (AID 2078)
[4] = target: Voltage-dependent T-type calcium channel subunit alpha-1H (Homo sapiens, UniProt O95180); experiment: Cav3.2 T-type channel inhibitors, synthesized analogs, SAR follow-up, cell-based, synthetic library set 2, HEK293 HH8, Fluo-4 (AID 493023); type: functional
[5] = target: Sphingosine 1-phosphate receptor 1 (Homo sapiens, UniProt P21453); experiment: Fluorescence-based counterscreen assay for S1P4 agonists: Cell-based dose response high throughput screening assay to identify agonists of the Sphingosine 1-Phosphate Receptor 1 (S1P1). [Related pubchem assays (depositor defined):AID1509, AID1523, AID1801, AID463107, AID463118, AID463119, AID463122, AID463123, AID463129, AID463225, AID504400, AID504460]; type: functional
[6] = target: T1, Sphingosine 1-phosphate receptor 4; experiment: Fluorescence dose response cell-based high throughput screening assay for agonists of the Sphingosine 1-Phosphate Receptor 4 (S1P4). [Related pubchem assays: 1509 (Primary screen.), 1523 (Confirmation screen in triplicates.)]; type: functional
[7] = target: T2, E3 ubiquitin-protein ligase XIAP (Homo sapiens, UniProt P98170); experiment: XIAP antagonists, biochemical, IAP family, fluorescence polarization (AID 1018); type: functional
[8] = target: T2, E3 ubiquitin-protein ligase XIAP; experiment: Counter Screen using XIAP-Bir3 for Chemical Antagonists of Bir1/2 domains of IAP-family anti-apoptotic proteins. [Related pubchem assays (depositor defined):AID1018, AID1449, AID1514, AID1638, AID1749, AID1750, AID488957, AID488963]
[9] = target: Dual specificity protein phosphatase 6 (Rattus norvegicus, UniProt Q64346); experiment: MKP-3 phosphatase inhibitors, primary screen, biochemical, rat enzyme, in vitro (AID 425)
[10] = target: T3, Dual specificity protein phosphatase 3 (Homo sapiens, UniProt P51452); experiment: VHR1 phosphatase inhibitors, primary screen, biochemical, absorbance, uHTS (AID 1654)
[11] = target: T3, Dual specificity protein phosphatase 3; experiment: VHR1 phosphatase inhibitors, biochemical (AID 1878)
[12] = target: T4, Cannabinoid receptor 2 (Homo sapiens, UniProt P34972); experiment: SAR analysis of antagonists of the Cannabinoid Receptor 2 using an Image-Based Assay - Set 2. [Related pubchem assays (depositor defined):AID1961, AID1965]; type: functional
[13] = target: T5, G-protein coupled receptor 35 (Homo sapiens, UniProt Q9HC97); experiment: SAR analysis of Antagonists of the GPR35 Receptor using an Image-Based Assay - Set 4. [Related pubchem assays (depositor defined):[…]]; type: functional
[14] = target: G-protein coupled receptor 55 (Homo sapiens, UniProt Q9Y2T6); experiment: SAR analysis of selective Agonists of GPR55 using an Image-Based Assay - Set 2. [Related pubchem assays (depositor defined):AID1961, AID1965]; type: functional
[15] = target: T6, Cannabinoid receptor 1 (Homo sapiens, UniProt P21554); experiment: SAR analysis of antagonists of the Cannabinoid Receptor 1 using an Image-Based Assay - Set 3. [Related pubchem assays (depositor defined):AID1961, AID1965]; type: functional
[16] = target: T5, G-protein coupled receptor 35; experiment: SAR analysis of Agonists of the GPR35 Receptor using an Image-Based Assay - Set 3. [Related pubchem assays (depositor defined):AID1961, AID1965]; type: functional
[17] = target: T6, Cannabinoid receptor 1; experiment: SAR analysis of agonists of the Cannabinoid Receptor 1 using an Image-Based Assay - Set 3. [Related pubchem assays (depositor defined):AID1961, AID1965]; type: functional
[18] = target: T4, Cannabinoid receptor 2; experiment: SAR analysis of agonists of the Cannabinoid Receptor 2 using an Image-Based Assay - Set 2. [Related pubchem assays (depositor defined):AID1961, AID1965]; type: functional
[19] = target: Coagulation factor XII (Homo sapiens, UniProt P00748); type: functional;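 note: activated factor XIIa alpha cleaving a fluorogenic AMC peptide substrate; inhibitor potency from loss of enzyme activity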
[20] = target: T7, Mu-type opioid receptor (Homo sapiens, UniProt P35372); experiment: MOR agonists by imaging, SAR follow-up, image-based (AID 2352); type: functional
[21] = target: T8, Kappa-type opioid receptor (Homo sapiens, UniProt P41145); experiment: KOR agonist analogs, imaging readout, SAR follow-up, image-based (AID 2359); type: functional
[22] = target: T7, Mu-type opioid receptor; experiment: MOR antagonists, SAR follow-up, image-based (AID 2420); type: functional;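 note: compounds added before stimulation of receptor with agonist DAMGO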
[23] = target: T9, Tyrosine-protein phosphatase non-receptor type 7 (Homo sapiens, UniProt P35236); experiment: SAR analysis of chemical inhibitors of HePTP using a Fluorescent assay - Set 2. [Related pubchem assays (depositor defined):AID1059, AID1077, AID1661, AID2085, AID521]; type: functional
T9 sequence (P35236 whole entry): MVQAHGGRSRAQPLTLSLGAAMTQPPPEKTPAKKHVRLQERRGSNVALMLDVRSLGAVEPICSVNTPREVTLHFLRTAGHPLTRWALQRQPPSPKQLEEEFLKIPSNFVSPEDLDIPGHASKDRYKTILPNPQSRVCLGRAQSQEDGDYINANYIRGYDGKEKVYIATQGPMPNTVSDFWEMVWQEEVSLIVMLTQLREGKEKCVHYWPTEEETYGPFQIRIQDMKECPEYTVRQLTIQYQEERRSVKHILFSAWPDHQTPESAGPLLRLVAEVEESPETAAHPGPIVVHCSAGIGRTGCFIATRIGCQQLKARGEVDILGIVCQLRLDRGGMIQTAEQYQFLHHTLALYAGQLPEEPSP

[24] = target: T3, Dual specificity protein phosphatase 3; experiment: SAR VHR1 Fluorescent Assay for In Vitro dose response studies Set 2. [Related pubchem assays (depositor defined):AID1654, AID1661, AID1878]; type: functional
[25] = target: T8, Kappa-type opioid receptor; experiment: kappa opioid receptor blockers, cell-based, luminescence, beta-arrestin, SAR follow-up (AID 2285); type: functional
[26] = target: T10, Delta-type opioid receptor (Homo sapiens, UniProt P41143); experiment: DOR antagonists, SAR follow-up, image-based (AID 2357); type: functional
[27] = target: T10, Delta-type opioid receptor; experiment: DOR agonists, SAR follow-up, image-based (AID 2370); type: functional
[28] = target: T8, Kappa-type opioid receptor; experiment: KOR antagonists by imaging, SAR follow-up, image-based (AID 2348); type: functional
[29] = target: Sphingosine 1-phosphate receptor 2 (Homo sapiens, UniProt O95136); experiment: Late stage counterscreen assay for S1P4 antagonists: Fluorescence dose response cell-based screening assay for antagonists of the Sphingosine 1-Phosphate Receptor 2 (S1P2). [Related pubchem assays (depositor defined):AID1510, AID1524, AID1692, AID1853, AID2332, AID489009, AID489017]; type: functional
[30] = target: Sphingosine 1-phosphate receptor 3 (Homo sapiens, UniProt Q99500); experiment: Late stage counterscreen assay for S1P4 antagonists: Fluorescence dose response cell-based screening assay for antagonists of the Sphingosine 1-Phosphate Receptor 3 (S1P3). [Related pubchem assays (depositor defined):AID1510, AID1524, AID1692, AID1853, AID2332, AID489009, AID489017]; type: functional
[31] = target: Sphingosine 1-phosphate receptor 5 (Homo sapiens, UniProt Q9H228); experiment: Late stage counterscreen assay for S1P4 antagonists: Fluorescence dose response cell-based screening assay for antagonists of the Sphingosine 1-Phosphate Receptor 5 (S1P5). [Related pubchem assays (depositor defined):AID1510, AID1524, AID1692, AID1853, AID2332, AID489009, AID489017]; type: functional
[32] = target: Peroxisome proliferator-activated receptor gamma (Homo sapiens, UniProt P37231); experiment: PPARg partial agonists, dose response, cell-based, luminescence, assay provider (AID 504447); type: functional

T3 sequence (P51452 whole entry): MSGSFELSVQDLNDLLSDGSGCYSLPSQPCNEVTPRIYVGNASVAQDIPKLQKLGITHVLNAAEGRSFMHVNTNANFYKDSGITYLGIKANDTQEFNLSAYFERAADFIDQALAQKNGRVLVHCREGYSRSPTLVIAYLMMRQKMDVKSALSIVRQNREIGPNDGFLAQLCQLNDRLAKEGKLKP
T8 sequence (P41145 whole entry): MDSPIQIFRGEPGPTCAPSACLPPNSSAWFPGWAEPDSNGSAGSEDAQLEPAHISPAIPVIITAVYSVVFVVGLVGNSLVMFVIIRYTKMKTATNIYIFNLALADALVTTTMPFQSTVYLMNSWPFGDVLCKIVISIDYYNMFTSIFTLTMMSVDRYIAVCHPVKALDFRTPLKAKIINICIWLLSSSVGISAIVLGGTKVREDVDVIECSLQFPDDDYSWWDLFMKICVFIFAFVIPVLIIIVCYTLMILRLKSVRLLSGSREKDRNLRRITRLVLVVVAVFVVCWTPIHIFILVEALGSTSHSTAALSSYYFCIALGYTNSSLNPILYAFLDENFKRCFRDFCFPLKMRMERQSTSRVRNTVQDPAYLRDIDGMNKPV
T7 sequence (P35372 whole entry): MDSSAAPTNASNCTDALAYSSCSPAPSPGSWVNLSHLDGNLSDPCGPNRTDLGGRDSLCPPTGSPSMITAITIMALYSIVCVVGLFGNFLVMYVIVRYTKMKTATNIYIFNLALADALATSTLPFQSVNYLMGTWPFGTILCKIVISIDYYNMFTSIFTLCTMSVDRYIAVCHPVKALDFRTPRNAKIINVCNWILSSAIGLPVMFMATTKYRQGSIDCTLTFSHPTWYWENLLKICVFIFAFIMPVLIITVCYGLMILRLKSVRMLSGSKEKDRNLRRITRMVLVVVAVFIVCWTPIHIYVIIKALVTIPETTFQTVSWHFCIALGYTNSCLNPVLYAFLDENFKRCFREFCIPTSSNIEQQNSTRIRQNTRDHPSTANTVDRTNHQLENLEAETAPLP
T5 sequence (Q9HC97 whole entry): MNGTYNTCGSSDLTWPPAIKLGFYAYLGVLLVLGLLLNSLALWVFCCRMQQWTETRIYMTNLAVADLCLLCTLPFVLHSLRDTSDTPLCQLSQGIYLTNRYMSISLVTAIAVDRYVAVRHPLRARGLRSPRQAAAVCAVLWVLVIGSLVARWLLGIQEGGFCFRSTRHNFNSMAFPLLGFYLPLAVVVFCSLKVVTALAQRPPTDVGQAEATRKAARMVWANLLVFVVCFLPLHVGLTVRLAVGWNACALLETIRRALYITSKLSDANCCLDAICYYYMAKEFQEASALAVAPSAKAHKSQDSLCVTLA
T10 sequence (P41143 whole entry): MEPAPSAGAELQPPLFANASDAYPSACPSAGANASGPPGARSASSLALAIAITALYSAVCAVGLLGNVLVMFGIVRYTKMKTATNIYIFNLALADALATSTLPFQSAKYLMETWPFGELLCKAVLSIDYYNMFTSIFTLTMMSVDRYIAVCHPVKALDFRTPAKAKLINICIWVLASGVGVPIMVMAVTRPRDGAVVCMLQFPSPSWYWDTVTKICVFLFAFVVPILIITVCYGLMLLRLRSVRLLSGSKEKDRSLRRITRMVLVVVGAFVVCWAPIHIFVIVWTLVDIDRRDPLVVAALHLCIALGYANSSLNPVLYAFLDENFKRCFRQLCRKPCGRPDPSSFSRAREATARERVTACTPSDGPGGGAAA
T4 sequence (P34972 whole entry): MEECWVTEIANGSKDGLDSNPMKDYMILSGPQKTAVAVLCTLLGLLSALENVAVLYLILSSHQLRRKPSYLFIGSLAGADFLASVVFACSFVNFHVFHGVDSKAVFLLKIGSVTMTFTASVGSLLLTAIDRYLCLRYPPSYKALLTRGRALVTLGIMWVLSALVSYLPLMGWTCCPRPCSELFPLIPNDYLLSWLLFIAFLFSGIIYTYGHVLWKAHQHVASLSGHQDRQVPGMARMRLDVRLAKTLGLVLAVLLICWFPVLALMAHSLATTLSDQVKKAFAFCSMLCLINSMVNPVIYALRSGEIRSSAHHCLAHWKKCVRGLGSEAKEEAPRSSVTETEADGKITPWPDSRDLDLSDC
T6 sequence (P21554 whole entry): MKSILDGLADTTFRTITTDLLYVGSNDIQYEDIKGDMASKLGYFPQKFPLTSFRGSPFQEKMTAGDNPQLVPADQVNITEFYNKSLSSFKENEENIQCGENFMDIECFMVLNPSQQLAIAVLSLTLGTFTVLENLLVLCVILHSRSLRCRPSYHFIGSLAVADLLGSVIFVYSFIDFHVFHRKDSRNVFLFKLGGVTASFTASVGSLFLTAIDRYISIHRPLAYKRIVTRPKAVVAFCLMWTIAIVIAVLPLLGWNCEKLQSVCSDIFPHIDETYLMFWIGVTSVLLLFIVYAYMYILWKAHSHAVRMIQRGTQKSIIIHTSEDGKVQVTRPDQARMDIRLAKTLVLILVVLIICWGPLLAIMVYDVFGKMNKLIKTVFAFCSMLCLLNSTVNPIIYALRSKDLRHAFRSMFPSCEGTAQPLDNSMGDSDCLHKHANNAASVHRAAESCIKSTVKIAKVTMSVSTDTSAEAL
T2 sequence (P98170 whole entry): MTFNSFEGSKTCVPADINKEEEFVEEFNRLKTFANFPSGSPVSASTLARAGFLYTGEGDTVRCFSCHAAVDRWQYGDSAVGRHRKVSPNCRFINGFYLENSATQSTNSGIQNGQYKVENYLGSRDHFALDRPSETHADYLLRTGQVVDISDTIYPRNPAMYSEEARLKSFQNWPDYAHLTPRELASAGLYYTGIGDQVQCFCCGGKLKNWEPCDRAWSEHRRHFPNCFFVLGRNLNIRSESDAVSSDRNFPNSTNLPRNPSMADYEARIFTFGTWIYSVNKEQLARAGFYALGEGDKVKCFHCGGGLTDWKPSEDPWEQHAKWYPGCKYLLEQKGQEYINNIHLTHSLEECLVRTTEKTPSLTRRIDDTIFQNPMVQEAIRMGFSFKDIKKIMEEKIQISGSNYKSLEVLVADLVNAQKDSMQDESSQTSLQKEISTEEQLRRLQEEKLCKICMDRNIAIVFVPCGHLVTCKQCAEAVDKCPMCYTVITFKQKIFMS
Signal transducer and activator of transcription 3, sequence (P40763 whole entry): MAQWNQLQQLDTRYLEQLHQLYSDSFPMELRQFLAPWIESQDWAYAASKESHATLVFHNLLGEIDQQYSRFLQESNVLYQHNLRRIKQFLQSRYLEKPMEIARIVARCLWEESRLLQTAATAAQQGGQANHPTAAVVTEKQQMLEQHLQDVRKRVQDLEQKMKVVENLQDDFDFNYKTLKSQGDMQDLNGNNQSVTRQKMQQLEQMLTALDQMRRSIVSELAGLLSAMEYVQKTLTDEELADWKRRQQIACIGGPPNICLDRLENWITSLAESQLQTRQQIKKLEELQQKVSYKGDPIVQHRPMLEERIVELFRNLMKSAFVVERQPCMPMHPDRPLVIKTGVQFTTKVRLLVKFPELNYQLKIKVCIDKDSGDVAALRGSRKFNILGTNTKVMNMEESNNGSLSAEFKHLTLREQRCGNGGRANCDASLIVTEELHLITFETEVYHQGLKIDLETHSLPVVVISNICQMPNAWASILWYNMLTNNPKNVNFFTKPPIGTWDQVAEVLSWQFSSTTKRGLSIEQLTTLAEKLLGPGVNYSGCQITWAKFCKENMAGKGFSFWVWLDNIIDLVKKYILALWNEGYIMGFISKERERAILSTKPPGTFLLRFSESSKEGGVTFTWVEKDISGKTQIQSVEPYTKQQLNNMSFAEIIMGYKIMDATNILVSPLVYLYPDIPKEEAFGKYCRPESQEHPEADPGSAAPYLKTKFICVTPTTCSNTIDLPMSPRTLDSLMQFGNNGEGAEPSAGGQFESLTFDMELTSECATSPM
Sphingosine 1-phosphate receptor 2, sequence (O95136 whole entry): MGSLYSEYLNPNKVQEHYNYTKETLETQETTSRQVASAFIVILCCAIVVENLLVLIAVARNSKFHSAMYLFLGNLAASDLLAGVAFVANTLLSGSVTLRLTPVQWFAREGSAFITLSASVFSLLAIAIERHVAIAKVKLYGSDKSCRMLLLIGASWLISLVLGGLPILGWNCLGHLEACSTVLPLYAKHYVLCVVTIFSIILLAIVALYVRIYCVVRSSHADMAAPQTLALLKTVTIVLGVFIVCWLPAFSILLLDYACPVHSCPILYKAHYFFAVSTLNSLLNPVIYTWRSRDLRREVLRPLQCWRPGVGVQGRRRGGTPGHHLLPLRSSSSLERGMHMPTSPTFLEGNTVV
Sphingosine 1-phosphate receptor 5, sequence (Q9H228 whole entry): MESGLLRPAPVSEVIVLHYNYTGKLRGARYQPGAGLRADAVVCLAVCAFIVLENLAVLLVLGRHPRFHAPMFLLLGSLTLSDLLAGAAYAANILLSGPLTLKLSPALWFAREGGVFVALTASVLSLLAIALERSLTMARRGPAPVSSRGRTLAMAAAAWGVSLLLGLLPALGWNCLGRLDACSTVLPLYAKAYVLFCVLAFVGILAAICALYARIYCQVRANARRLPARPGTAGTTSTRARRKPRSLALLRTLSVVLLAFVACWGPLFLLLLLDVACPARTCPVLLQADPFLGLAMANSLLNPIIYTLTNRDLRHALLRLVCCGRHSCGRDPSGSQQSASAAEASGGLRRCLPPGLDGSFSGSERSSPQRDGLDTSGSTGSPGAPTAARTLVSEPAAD
G-protein coupled receptor 55, sequence (Q9Y2T6 whole entry): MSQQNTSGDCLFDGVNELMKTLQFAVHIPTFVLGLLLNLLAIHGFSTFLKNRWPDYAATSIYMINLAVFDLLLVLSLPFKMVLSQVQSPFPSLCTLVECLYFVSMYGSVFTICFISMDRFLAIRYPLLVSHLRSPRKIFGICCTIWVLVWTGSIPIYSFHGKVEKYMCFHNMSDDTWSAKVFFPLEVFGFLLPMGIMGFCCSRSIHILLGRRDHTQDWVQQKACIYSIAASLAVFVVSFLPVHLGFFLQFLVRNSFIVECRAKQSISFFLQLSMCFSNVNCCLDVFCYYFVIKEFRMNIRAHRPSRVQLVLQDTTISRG

Structure (SMILES): Cc1ccc(OCc2ccc(Cl)cc2)c([N+](=O)[O-])n1
- EC50 [1]: > 50 µM (inactive)

Structure (SMILES): c1ccc(Cc2nc(N3CCC(Cc4ccccc4)CC3)c3c4c(sc3n2)CCCC4)cc1
- IC50 [2]: > 55.7 µM (inactive)
- IC50 [3]: > 55.7 µM (inactive)

Structure (SMILES): CC(C)(C)CCN1CCC[C@H](NC(=O)COc2ccccc2Cl)C1
- EC50 [4]: 10 µM (active)

Structure (SMILES): COc1cccc(C2CN(c3ccc(F)cc3F)N=C2c2cccs2)c1OC (configuration not stated)
- EC50 [5]: 7.49 µM (active)
- EC50 [6]: 11.1 µM (not active)

Structure (SMILES): CCNC(=O)CSc1nnc(-c2cccc(S(=O)(=O)N(CC)CC)c2)n1CCc1ccccc1
- IC50 [7]: > 100 µM (not active)
- IC50 [8]: > 100 µM (inactive)

Structure (SMILES): O=C(O)C1CCC(N2C(=O)c3c(Cl)c(Cl)c(Cl)c(Cl)c3C2=O)CC1 (configuration not stated)
- IC50 [9]: 113 µM (not active)
- IC50 [10]: 5.1 µM (active)
- IC50 [11]: 3.6 µM (active)

Structure (SMILES): COc1ccc(S(=O)(=O)N2CCOCC2)cc1NC(=O)c1ccc(-n2nc(C)cc2C)cc1
- IC50 [12]: > 32 µM (inactive)
- IC50 [13]: > 32 µM (inactive)
- EC50 [14]: 0.831 µM (active)
- IC50 [15]: 20.3 µM (inactive)
- EC50 [16]: > 32 µM (inactive)
- EC50 [17]: > 32 µM (inactive)
- EC50 [18]: > 32 µM (inactive)

Structure (SMILES): CC(C(=O)Oc1ccc2c(c1)OCO2)N1C(=O)c2ccccc2C1=O (configuration not stated)
- IC50 [19]: > 50 µM (inactive)

Structure (SMILES): Cc1ccc(NC(=S)NC(NC(=O)OCc2ccccc2)C(Cl)(Cl)Cl)cc1 (configuration not stated)
- EC50 [20]: > 32 µM (inactive)
- EC50 [21]: > 32 µM (inactive)
- IC50 [22]: > 32 µM (inactive)
- IC50 [23]: > 100 µM (inactive)
- IC50 [24]: > 100 µM (inactive)
- IC50 [25]: > 10 µM (inactive)
- IC50 [26]: > 32 µM (inactive)
- EC50 [27]: > 32 µM (inactive)
- IC50 [28]: > 32 µM (inactive)

Structure (SMILES): Cc1cccc(C)c1NC(=O)c1ccc(-c2cc(Cl)ccc2Cl)o1
- IC50 [29]: 7.88 µM (active)
- IC50 [30]: 19.5 µM (inactive)
- IC50 [31]: > 25 µM (inactive)

Structure (SMILES): O=C(Nc1ccccc1Cl)C(=O)c1cn(CC(=O)N2CCOCC2)c2ccccc12
- EC50 [32]: 2 µM (active)
